Measurements published in patent EP4635500A1, “THERAPEUTIC AGENT FOR BACTERIAL INFECTION” (Sumitomo Pharma Co., Ltd., priority 2022, dated 2024).
Converted amounts (≈) assume the structure as drawn. Like-named read-outs stand apart in the source and are kept apart here.

How the values were obtained:
Format in all cases: cell-based
P. aeruginosa = test: MIC, broth microdilution, CDC/FDA Antibiotic Resistance Isolate Bank (Example 7, Tables 10, 15)
Enterobacter hormaechei = test: MIC, broth microdilution, standard strains and Japanese clinical isolates (Example 5, Table 4); settings: ATCCBAA2082; KUB4001 Enterobacter hormaechei ATCC BAA-2082, KPC-2
Klebsiella pneumoniae = test: as above
Providencia rettgeri = test: as above; settings: ATCCBAA2525; KUB4010 Providencia rettgeri ATCC BAA-2525, OXA-181
Escherichia coli = test: as above
Enterobacter cloacae = test: as above
53 CRE and CPE strains = test: MICrange, MIC50, MIC80, MIC90 for 53 bacterial isolates (Example 5, Table 5); settings: 53 bacterial isolates
CRE and CPE strains = test: MIC, broth microdilution, standard strains and Japanese clinical isolates (Example 5, Table 4 continued; organism of each KUB strain not given)
Enterobacterales = test: MIC, broth microdilution, CDC/FDA Antibiotic Resistance Isolate Bank (Example 7, Tables 8, 11, 12)

## O=C(O)c1cn(C2CC2)c2cc(N3CCNCC3)c(F)cc2c1=O [Ciyprofloxacin]
P. aeruginosa; P. aeruginosa KUB No. 5681, AR Bank # 248
  MIC: 8 µg/mL (≈ 24.1 µM)
P. aeruginosa; P. aeruginosa KUB No. 5684, AR Bank # 251
  MIC: 4 µg/mL (≈ 12.1 µM)
P. aeruginosa; P. aeruginosa KUB No. 5685, AR Bank # 252
  MIC: 8 µg/mL (≈ 24.1 µM)
P. aeruginosa; P. aeruginosa KUB No. 5694, AR Bank # 261
  MIC: 2 µg/mL (≈ 6.04 µM)
P. aeruginosa; P. aeruginosa KUB No. 5695, AR Bank # 262
  MIC: 0.5 µg/mL (≈ 1.51 µM)
P. aeruginosa; P. aeruginosa KUB No. 5696, AR Bank # 263
  MIC: 1 µg/mL (≈ 3.02 µM)
P. aeruginosa; P. aeruginosa KUB No. 5700, AR Bank # 267
  MIC: 8 µg/mL (≈ 24.1 µM)
P. aeruginosa; P. aeruginosa KUB No. 5701, AR Bank # 268
  MIC: 4 µg/mL (≈ 12.1 µM)
P. aeruginosa; P. aeruginosa KUB No. 5703, AR Bank # 270
  MIC: 8 µg/mL (≈ 24.1 µM)

## C[C@@H](O)[C@H]1C(=O)N2C(C(=O)O)=C(SCCN=CN)C[C@H]12 [Imipenem, imipenem]
Enterobacter hormaechei
  MIC: 32 µg/mL (≈ 107 µM)
Klebsiella pneumoniae; ATCCBAA1898, KUB3996 Klebsiella pneumoniae ATCC BAA-1898, KPC-2
  MIC: 32 µg/mL (≈ 107 µM)
Klebsiella pneumoniae; ATCCBAA1899, KUB3997 Klebsiella pneumoniae ATCC BAA-1899, KPC-2
  MIC: 8 µg/mL (≈ 26.7 µM)
Klebsiella pneumoniae; ATCCBAA1900, KUB3998 Klebsiella pneumoniae ATCC BAA-1900, KPC-3
  MIC: 32 µg/mL (≈ 107 µM)
Klebsiella pneumoniae; ATCCBAA1904, KUB3999 Klebsiella pneumoniae ATCC BAA-1904, KPC-3
  MIC: 4 µg/mL (≈ 13.4 µM)
Klebsiella pneumoniae; ATCCBAA2078, KUB4000 Klebsiella pneumoniae ATCC BAA-2078, KPC-3
  MIC: 8 µg/mL (≈ 26.7 µM)
Klebsiella pneumoniae; ATCCBAA2146, KUB4011 Klebsiella pneumoniae ATCC BAA-2146, NDM-1
  MIC: > 32 µg/mL
Klebsiella pneumoniae; ATCCBAA2342, KUB4003 Klebsiella pneumoniae ATCC BAA-2342, KPC-3
  MIC: 8 µg/mL (≈ 26.7 µM)
Klebsiella pneumoniae; ATCCBAA2343, KUB4004 Klebsiella pneumoniae ATCC BAA-2343, KPC-3
  MIC: 16 µg/mL (≈ 53.4 µM)
Klebsiella pneumoniae; ATCCBAA2472, KUB4008 Klebsiella pneumoniae subsp. Pneumoniae ATCC BAA-2472, NDM-1
  MIC: 32 µg/mL (≈ 107 µM)
Klebsiella pneumoniae; ATCCBAA2473, KUB4009 Klebsiella pneumoniae ATCC BAA-2473, NDM-1
  MIC: 32 µg/mL (≈ 107 µM)
Klebsiella pneumoniae; KUB3631 Klebsiella pneumoniae Clinical isolate, IMP-1
  MIC: 1 µg/mL (≈ 3.34 µM)
Klebsiella pneumoniae; KUB3633 Klebsiella pneumoniae Clinical isolate, IMP-6
  MIC: 0.12 µg/mL (≈ 0.401 µM)
Klebsiella pneumoniae; KUB3634 Klebsiella pneumoniae Clinical isolate, IMP-6
  MIC: 0.12 µg/mL (≈ 0.401 µM)
Klebsiella pneumoniae; KUB3635 Klebsiella pneumoniae Clinical isolate, IMP-1
  MIC: > 32 µg/mL
Providencia rettgeri
  MIC: 4 µg/mL (≈ 13.4 µM)
Escherichia coli; ATCCBAA2452, KUB4005 Escherichia coli ATCC BAA-2452, NDM-1
  MIC: 4 µg/mL (≈ 13.4 µM)
Escherichia coli; ATCCBAA2471, KUB4007 Escherichia coli ATCC BAA-2471, NDM-6
  MIC: 32 µg/mL (≈ 107 µM)
Enterobacter cloacae; ATCCBAA2341, KUB4002 Enterobacter cloacae ATCC BAA-2341, KPC-3
  MIC: 16 µg/mL (≈ 53.4 µM)
Enterobacter cloacae; ATCCBAA2468, KUB4006 Enterobacter cloacae ATCC BAA-2468, NDM-1
  MIC: > 32 µg/mL
53 CRE and CPE strains; read-out: MIC50
  MIC50: 4 µg/mL (≈ 13.4 µM)
53 CRE and CPE strains; read-out: MIC80
  MIC80: 32 µg/mL (≈ 107 µM)
53 CRE and CPE strains; read-out: MIC90
  MIC90: 32 µg/mL (≈ 107 µM)
CRE and CPE strains; strain KUB3148, carbapenemase gene KPC-3, read-out: MIC
  MIC: 1 µg/mL (≈ 3.34 µM)
CRE and CPE strains; strain KUB3149, carbapenemase gene NDM-1, read-out: MIC
  MIC: 4 µg/mL (≈ 13.4 µM)
CRE and CPE strains; strain KUB3150, carbapenemase gene OXA-48, read-out: MIC
  MIC: 0.5 µg/mL (≈ 1.67 µM)
CRE and CPE strains; strain KUB3151, carbapenemase gene IMP-1, read-out: MIC
  MIC: 0.5 µg/mL (≈ 1.67 µM)
CRE and CPE strains; strain KUB3152, carbapenemase gene KPC-2, read-out: MIC
  MIC: 8 µg/mL (≈ 26.7 µM)
CRE and CPE strains; strain KUB3153, carbapenemase gene KPC-3, read-out: MIC
  MIC: 16 µg/mL (≈ 53.4 µM)
CRE and CPE strains; strain KUB3154, carbapenemase gene KPC-2, read-out: MIC
  MIC: 1 µg/mL (≈ 3.34 µM)
CRE and CPE strains; strain KUB3163, carbapenemase gene IMP-1
  MIC: 2 µg/mL (≈ 6.68 µM)
CRE and CPE strains; strain KUB3606, carbapenemase gene KPC-38
  MIC: > 32 µg/mL
CRE and CPE strains; strain KUB3620, carbapenemase gene -
  MIC: 32 µg/mL (≈ 107 µM)
CRE and CPE strains; strain KUB3628, carbapenemase gene IMP-1
  MIC: 32 µg/mL (≈ 107 µM)
CRE and CPE strains; strain KUB3629, carbapenemase gene IMP-1
  MIC: 8 µg/mL (≈ 26.7 µM)

## C[C@H]1COc2c(N3CCN(C)CC3)c(F)cc3c(=O)c(C(=O)O)cn1c23 [Levoflexacin]
Enterobacterales; Enterobacter aerogenes, KUB No. 5559, AR Bank # 62
  MIC: 2 µg/mL (≈ 5.53 µM)
Enterobacterales; Enterobacter aerogenes, KUB No. 5571, AR Bank # 74
  MIC: 0.12 µg/mL (≈ 0.332 µM)
Enterobacterales; Enterobacter cloacae, KUB No. 5562, AR Bank # 65
  MIC: 0.12 µg/mL (≈ 0.332 µM)
Enterobacterales; Enterobacter cloacae, KUB No. 5569, AR Bank # 72
  MIC: 0.5 µg/mL (≈ 1.38 µM)
Enterobacterales; Enterobacter cloacae, KUB No. 5570, AR Bank # 73
  MIC: 0.25 µg/mL (≈ 0.692 µM)
Enterobacterales; Enterobacter cloacae, KUB No. 5590, AR Bank # 93
  MIC: 4 µg/mL (≈ 11.1 µM)
Enterobacterales; Escherichia coli, KUB No. 5558, AR Bank # 61
  MIC: 0.12 µg/mL (≈ 0.332 µM)
Enterobacterales; Escherichia coli, KUB No. 5564, AR Bank # 67
  MIC: 32 µg/mL (≈ 88.6 µM)
Enterobacterales; Escherichia coli, KUB No. 5566, AR Bank # 69
  MIC: 0.12 µg/mL (≈ 0.332 µM)
Enterobacterales; Escherichia coli, KUB No. 5574, AR Bank # 77
  MIC: 0.06 µg/mL (≈ 0.166 µM)
Enterobacterales; Escherichia coli, KUB No. 5578, AR Bank # 81
  MIC: 32 µg/mL (≈ 88.6 µM)
Enterobacterales; Escherichia coli, KUB No. 5581, AR Bank # 84
  MIC: 64 µg/mL (≈ 177 µM)
Enterobacterales; Escherichia coli, KUB No. 5582, AR Bank # 85
  MIC: 32 µg/mL (≈ 88.6 µM)
Enterobacterales; Escherichia coli, KUB No. 5583, AR Bank # 86
  MIC: 8 µg/mL (≈ 22.1 µM)
Enterobacterales; Escherichia coli, KUB No. 5586, AR Bank # 89
  MIC: 0.12 µg/mL (≈ 0.332 µM)
Enterobacterales; Klebsiella oxytoca, KUB No. 5568, AR Bank # 71
  MIC: 0.5 µg/mL (≈ 1.38 µM)
Enterobacterales; Klebsiella ozaenae, KUB No. 5593, AR Bank # 96
  MIC: 32 µg/mL (≈ 88.6 µM)
Enterobacterales; Klebsiella pneumoniae, KUB No. 5563, AR Bank # 66
  MIC: 64 µg/mL (≈ 177 µM)
Enterobacterales; Klebsiella pneumoniae, KUB No. 5565, AR Bank # 68
  MIC: 64 µg/mL (≈ 177 µM)
Enterobacterales; Klebsiella pneumoniae, KUB No. 5572, AR Bank # 75
  MIC: >64 µg/mL
Enterobacterales; Klebsiella pneumoniae, KUB No. 5573, AR Bank # 76
  MIC: 1 µg/mL (≈ 2.77 µM)
Enterobacterales; Klebsiella pneumoniae, KUB No. 5576, AR Bank # 79
  MIC: 64 µg/mL (≈ 177 µM)
Enterobacterales; Klebsiella pneumoniae, KUB No. 5577, AR Bank # 80
  MIC: 0.12 µg/mL (≈ 0.332 µM)
Enterobacterales; Klebsiella pneumoniae, KUB No. 5584, AR Bank # 87
  MIC: >64 µg/mL
Enterobacterales; Klebsiella pneumoniae, KUB No. 5594, AR Bank # 97
  MIC: >64 µg/mL
Enterobacterales; Klebsiella pneumoniae, KUB No. 5595, AR Bank # 98
  MIC: 64 µg/mL (≈ 177 µM)
Enterobacterales; Providencia rettgeri, KUB No. 5579, AR Bank # 82
  MIC: 0.25 µg/mL (≈ 0.692 µM)
Enterobacterales; Serratia marcescens, KUB No. 5588, AR Bank # 91
  MIC: 0.25 µg/mL (≈ 0.692 µM)
